From ChEMBL document CHEMBL1201862, “PubChem BioAssay data set” (2004)
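Compound exposure: 48 hours, 5 concentrations, 96-well plates. GI50 is the concentration that inhibits growth by half.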 Active and inactive are the calls of the source. Rule as the data show it: active = GI50 up to about 1.1 µM and inactive = higher.

How the values were obtained:
Assay in all cases: NCI-60 cell line screen, 48 h
SR = tested on: SR
ACHN = tested on: ACHN
MDA-N = tested on: MDA-N
MDA-MB-435 = tested on: MDA-MB-435
SNB-19 = tested on: SNB-19
SN12C = tested on: SN12C
NCI-H522 = tested on: NCI-H522
SF-268 = tested on: SF-268
SK-MEL-2 = tested on: SK-MEL-2
A549 = tested on: A549
HOP-62 = tested on: HOP-62
EKVX = tested on: EKVX
RXF 393 = tested on: RXF 393
DU-145 = tested on: DU-145
LOX IMVI = tested on: LOX IMVI
BT-549 = tested on: BT-549
CCRF-CEM = tested on: CCRF-CEM
A498 = tested on: A498
SF-539 = tested on: SF-539
M14 = tested on: M14

Measured: GI50

Cc1ccc(C)c(NC(=O)C(Cc2c[nH]c3ccccc23)NC(=O)OCc2ccccc2)c1 (stereo not given)
inactive: SR 14.3 µM | ACHN 22.9 µM | MDA-N 29.3 µM | MDA-MB-435 21.9 µM | SNB-19 13.8 µM | SN12C 24.7 µM | NCI-H522 16.1 µM | SF-268 26.4 µM | SK-MEL-2 16 µM | A549 13.2 µM | HOP-62 48.8 µM | EKVX 14.5 µM | RXF 393 6.34 µM | DU-145 13.5 µM | LOX IMVI 37.3 µM | BT-549 21.8 µM | CCRF-CEM 1.42 µM | A498 35.6 µM | SF-539 8.53 µM | M14 13.6 µM

CCOc1ccc2c(c1)c(=O)c1c(NCCN(CC)CC)ccc3nnn2c31
inactive: SR 10.4 µM | ACHN 15.6 µM | MDA-N 17.5 µM | MDA-MB-435 16.9 µM | SNB-19 > 79.8 µM | SN12C 9.82 µM | NCI-H522 7.6 µM | SF-268 21.5 µM | SK-MEL-2 > 100 µM | A549 > 39.5 µM | HOP-62 > 31.4 µM | EKVX 83.2 µM | RXF 393 8.55 µM | DU-145 19.1 µM | LOX IMVI 11.4 µM | BT-549 > 71.3 µM | CCRF-CEM 4.91 µM | A498 > 100 µM | SF-539 9.08 µM | M14 35.2 µM

CCOC(=O)C1(Cc2ccccc2)CCN(C(=O)c2ccccc2)C2C1C2(Cl)Cl (stereo not given)
inactive: SR 23.6 µM | ACHN 21.6 µM | MDA-N 17.9 µM | MDA-MB-435 21.1 µM | SNB-19 36.1 µM | SN12C 16.4 µM | NCI-H522 18.1 µM | SF-268 29 µM | SK-MEL-2 15.6 µM | A549 30.1 µM | HOP-62 27.6 µM | EKVX 19.3 µM | RXF 393 16 µM | DU-145 33 µM | LOX IMVI 18.4 µM | BT-549 25.2 µM | CCRF-CEM 20 µM | A498 18.8 µM | SF-539 18 µM | M14 18.3 µM

COc1ccc2c3c(c(=O)n(C)c2c1OC)C=CC(C)(C)O3
inactive: SR 3.46 µM | ACHN 13.7 µM | MDA-N 21.7 µM | MDA-MB-435 38.3 µM | SNB-19 20.7 µM | SN12C 12.7 µM | NCI-H522 34.5 µM | SF-268 26.8 µM | SK-MEL-2 42.6 µM | A549 44.7 µM | HOP-62 80.2 µM | EKVX 23.9 µM | RXF 393 26.5 µM | DU-145 43.7 µM | LOX IMVI 33.7 µM | BT-549 22.1 µM | CCRF-CEM 23.2 µM | A498 17.9 µM | SF-539 39.2 µM | M14 48.3 µM
